{"source": "paper PMC13046382", "about": "“Peptidoglycan recycling is critical for cell division, cell wall integrity, and β-lactam resistance in Caulobacter crescentus” (eLife, 2026)", "key": {"[1]": {"molecular_target": "T1, PBP3 (Caulobacter vibrioides, UniProt B8H0A0)", "T1 construct": "gene ftsI; native protein in crude membrane fraction, gel band", "T1 sequence (B8H0A0 1-589)": "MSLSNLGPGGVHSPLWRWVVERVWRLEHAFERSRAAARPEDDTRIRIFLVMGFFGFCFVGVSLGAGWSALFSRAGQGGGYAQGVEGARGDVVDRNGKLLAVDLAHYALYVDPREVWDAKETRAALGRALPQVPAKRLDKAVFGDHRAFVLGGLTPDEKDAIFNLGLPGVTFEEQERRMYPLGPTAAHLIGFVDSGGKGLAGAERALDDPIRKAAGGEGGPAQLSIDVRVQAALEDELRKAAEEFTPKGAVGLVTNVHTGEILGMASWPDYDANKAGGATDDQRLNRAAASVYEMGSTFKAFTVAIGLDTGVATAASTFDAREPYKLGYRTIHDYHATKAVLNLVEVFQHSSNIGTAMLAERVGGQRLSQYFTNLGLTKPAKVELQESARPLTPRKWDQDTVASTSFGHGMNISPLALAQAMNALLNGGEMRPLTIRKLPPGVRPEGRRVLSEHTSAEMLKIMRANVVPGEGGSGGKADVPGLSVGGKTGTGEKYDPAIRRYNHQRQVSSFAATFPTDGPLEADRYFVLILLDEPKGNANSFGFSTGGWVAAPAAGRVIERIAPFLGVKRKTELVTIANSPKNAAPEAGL", "assay": "competition with bocillin-FL labelling, SDS-PAGE fluorescence", "assay_type": "cell-based", "conditions": "covalent, crude membranes in PBS"}, "[2]": {"molecular_target": "T2, CrbA (Caulobacter vibrioides, UniProt A0A0H3C8K5)", "T2 construct": "native protein in crude membrane fraction, gel band", "T2 sequence (A0A0H3C8K5 entry or part of it)": "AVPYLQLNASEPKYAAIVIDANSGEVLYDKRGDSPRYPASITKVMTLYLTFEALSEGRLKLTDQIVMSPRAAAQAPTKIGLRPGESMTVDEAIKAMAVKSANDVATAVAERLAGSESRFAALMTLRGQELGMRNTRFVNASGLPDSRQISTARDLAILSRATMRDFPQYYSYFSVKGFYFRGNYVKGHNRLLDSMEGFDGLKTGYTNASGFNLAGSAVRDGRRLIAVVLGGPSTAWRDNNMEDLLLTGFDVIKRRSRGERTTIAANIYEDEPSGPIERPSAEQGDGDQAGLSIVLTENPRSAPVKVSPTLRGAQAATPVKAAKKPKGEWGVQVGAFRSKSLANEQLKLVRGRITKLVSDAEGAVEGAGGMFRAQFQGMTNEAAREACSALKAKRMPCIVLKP", "assay": "competition with bocillin-FL labelling, SDS-PAGE fluorescence", "assay_type": "cell-based", "conditions": "covalent; crude membranes in PBS, 1-100 µg/mL ampicillin for 2 hr at room temperature, active-site serine"}, "[3]": {"molecular_target": "T3, AmiR (Caulobacter vibrioides, UniProt A0A0H3CAA9)", "T3 construct": "gene CCNA_02650; His6-SUMO fusion expressed in E. coli Rosetta(DE3)pLysS, tag cut by SUMO protease", "T3 sequence (A0A0H3CAA9 entry or part of it)": "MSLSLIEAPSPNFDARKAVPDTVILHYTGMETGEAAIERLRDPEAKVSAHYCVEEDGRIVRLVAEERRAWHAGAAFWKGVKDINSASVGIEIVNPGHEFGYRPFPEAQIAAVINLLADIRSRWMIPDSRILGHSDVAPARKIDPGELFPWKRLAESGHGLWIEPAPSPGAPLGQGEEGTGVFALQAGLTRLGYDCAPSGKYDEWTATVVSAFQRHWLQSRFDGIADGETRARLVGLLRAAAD", "assay": "HPLC of reaction products", "assay_type": "biochemical", "conditions": "20 mM HEPES-NaOH, 50 mM NaCl, 1 mM MgCl2, pH 7.5, 37 °C, 16 hr; mixture of anhydro-muropeptides from Slt70-digested sacculi"}, "[4]": {"molecular_target": "T4, NagZ (Caulobacter vibrioides, UniProt A0A0H3C9G9)", "T4 construct": "gene CCNA_02085; His6-SUMO fusion expressed in E. coli Rosetta(DE3)pLysS, tag cut by SUMO protease", "T4 sequence (A0A0H3C9G9 entry or part of it)": "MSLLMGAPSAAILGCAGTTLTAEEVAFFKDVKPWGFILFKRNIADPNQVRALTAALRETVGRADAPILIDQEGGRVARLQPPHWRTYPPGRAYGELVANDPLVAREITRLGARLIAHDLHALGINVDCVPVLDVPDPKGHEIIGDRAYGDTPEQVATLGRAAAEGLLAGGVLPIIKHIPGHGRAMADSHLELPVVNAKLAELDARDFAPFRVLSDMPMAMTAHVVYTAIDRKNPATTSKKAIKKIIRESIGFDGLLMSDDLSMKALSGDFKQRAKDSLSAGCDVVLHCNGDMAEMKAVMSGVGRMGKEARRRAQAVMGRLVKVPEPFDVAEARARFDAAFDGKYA", "assay": "preincubation with NagZ, then coupled AmiR step and LC-MS", "assay_type": "biochemical", "conditions": "10 µM NagZ, 50 mM HEPES, 200 mM NaCl, 10% glycerol, pH 7.2, 37 °C, 16 hr"}}}
{"molecule": "CC1=C(C(=O)O)N2C(=O)[C@@H](NC(=O)[C@H](N)c3ccccc3)[C@H]2SC1", "note": "[cephalexin]", "values": [{"measurement": "competition with bocillin-FL labelling, SDS-PAGE fluorescence", "setting": "[1]; 5 µg/mL cefalexin for 2 hr at room temperature", "value": "The labeling of PBP3 and some bifunctional PBPs was also abolished by preincubation with cephalexin"}]}
{"molecule": "CC1(C)S[C@@H]2[C@H](NC(=O)[C@H](N)c3ccccc3)C(=O)N2[C@H]1C(=O)O", "note": "[ampicillin]", "values": [{"measurement": "competition with bocillin-FL labelling, SDS-PAGE fluorescence", "setting": "[2]", "value": "all but one of them (PbpX) remained unlabeled"}, {"measurement": "competition with bocillin-FL labelling, SDS-PAGE fluorescence", "setting": "[1]; 1-100 µg/mL ampicillin for 2 hr at room temperature, active-site serine", "value": "Among the ampicillin targets identified were the essential, cell division-specific monofunctional transpeptidase PBP3"}]}
{"molecule": "CC(=O)N[C@H]1[C@H](O[C@H]2[C@H](O[C@H](C)C(=O)N[C@@H](C)C(=O)N[C@H](CCC(=O)N[C@@H](CCC[C@@H](N)C(=O)O)C(=O)N[C@H](C)C(=O)O)C(=O)O)[C@@H](NC(C)=O)[C@@H]3OC[C@H]2O3)O[C@H](CO)[C@@H](O)[C@@H]1O", "note": "[GlcNAc–anhMurNAc-tetrapeptide]", "values": [{"measurement": "HPLC of reaction products", "setting": "[3]", "value": "AmiR efficiently hydrolyzed tetrapeptide-containing fragments"}, {"measurement": "preincubation with NagZ, then coupled AmiR step and LC-MS", "setting": "[4]", "value": "substrate anhMurNAc-tetrapeptide, generated by preincubating purified GlcNAc–anhMurNAc-tetrapeptide with NagZ"}]}
